Laboratory results as given in ChEMBL document CHEMBL3885881, “DrugMatrix”.

Species on record: Rattus norvegicus
Experiment: DrugMatrix - Regimen: Daily Repeat
Format: toxicity, organism-based, Sprague-Dawley
Parameters: regimen Daily Repeat, gender Male, age 6-8 weeks
Conditions: in vivo, po, route oral GAVAGE, […]; for ABSOLUTE BASOPHIL / ABSOLUTE EOSINOPHIL / ABSOLUTE LYMPHOCYTE / ABSOLUTE MONOCYTE / ABSOLUTE SEGMENTED NEUTROPHIL / BASOPHIL / EOSINOPHIL / ERYTHROCYTE COUNT / HEMATOCRIT / HEMOGLOBIN / LEUKOCYTE COUNT / LYMPHOCYTE / MEAN CORPUSCULAR HEMOGLOBIN / MEAN CORPUSCULAR HEMOGLOBIN CONCENTRATION / MEAN CORPUSCULAR VOLUME / MONOCYTE / NEUTROPHIL / NUCLEATED RED BLOOD CELLS / PLATELET COUNT: tissue Blood; for ALANINE AMINOTRANSFERASE / ALBUMIN / ALKALINE PHOSPHATASE / ASPARTATE AMINOTRANSFERASE / BLOOD UREA NITROGEN / CARBON DIOXIDE / CHLORIDE / CHOLESTEROL / CREATINE PHOSPHOKINASE / CREATININE / GLUCOSE / LACTATE DEHYDROGENASE / LIPASE / PHOSPHORUS / POTASSIUM / SODIUM / TOTAL BILIRUBIN / TOTAL PROTEIN / URIC ACID: tissue Plasma
[1] = 300 mg/kg, 120 h, dose level High, time 5 day
[2] = 72 h, dose 2.5 mg/Kg, dose level Low, time 3 day
[3] = 120 h, dose 2.5 mg/Kg, dose level Low, time 5 day

## CC(C)c1c(C(=O)Nc2ccccc2)c(-c2ccccc2)c(-c2ccc(F)cc2)n1CC[C@@H](O)C[C@@H](O)CC(=O)O [ATORVASTATIN]
[1]
  ABSOLUTE BASOPHIL: 0 CELLS/uL
  ABSOLUTE EOSINOPHIL: 0 CELLS/uL
  ABSOLUTE LYMPHOCYTE: 8045.67 CELLS/uL
  ABSOLUTE MONOCYTE: 74 CELLS/uL
  ABSOLUTE SEGMENTED NEUTROPHIL: 647 CELLS/uL
  BASOPHIL: 0%
  EOSINOPHIL: 0%
  ERYTHROCYTE COUNT: 6.15 x10E6/uL
  HEMATOCRIT: 38.73%
  HEMOGLOBIN: 15.2 G/DL
  LEUKOCYTE COUNT: 8.77 x10E3/uL
  LYMPHOCYTE: 92.33%
  MEAN CORPUSCULAR HEMOGLOBIN: 24.73 pg
  MEAN CORPUSCULAR HEMOGLOBIN CONCENTRATION: 39.27 G/DL
  MEAN CORPUSCULAR VOLUME: 63.03 fL
  MONOCYTE: 0.67%
  NEUTROPHIL: 7%
  NUCLEATED RED BLOOD CELLS: 0 /100WBC
  PLATELET COUNT: 1244.33 x10E3/uL
  ALANINE AMINOTRANSFERASE: 175.67 u/L
  ALBUMIN: 4.63 G/DL
  ALKALINE PHOSPHATASE: 577.33 u/L
  ASPARTATE AMINOTRANSFERASE: 151.33 u/L
  BLOOD UREA NITROGEN: 10.67 mg/dL
  CARBON DIOXIDE: 24.67 mmol/L
  CHLORIDE: 101.67 MEQ/L
  CHOLESTEROL: 52.67 mg/dL
  CREATINE PHOSPHOKINASE: 399.67 u/L
  CREATININE: 0.22 mg/dL
  GLUCOSE: 152.67 mg/dL
  LACTATE DEHYDROGENASE: 140.33 u/L
  LIPASE: 60.67 u/L
  PHOSPHORUS: 9.5 mg/dL
  POTASSIUM: 5.73 MEQ/L
  SODIUM: 145.97 MEQ/L
  TOTAL BILIRUBIN: 0.37 mg/dL
  TOTAL PROTEIN: 6.07 G/DL
  URIC ACID: 0.9 mg/dL
[2]
  ABSOLUTE BASOPHIL: 0 CELLS/uL
  ABSOLUTE EOSINOPHIL: 0 CELLS/uL
  ABSOLUTE LYMPHOCYTE: 8659.67 CELLS/uL
  ABSOLUTE MONOCYTE: 90 CELLS/uL
  ABSOLUTE SEGMENTED NEUTROPHIL: 583.67 CELLS/uL
  BASOPHIL: 0%
  EOSINOPHIL: 0%
  ERYTHROCYTE COUNT: 5.09 x10E6/uL
  HEMATOCRIT: 32.3%
  HEMOGLOBIN: 12.6 G/DL
  LEUKOCYTE COUNT: 9.33 x10E3/uL
  LYMPHOCYTE: 92.67%
  MEAN CORPUSCULAR HEMOGLOBIN: 24.77 pg
  MEAN CORPUSCULAR HEMOGLOBIN CONCENTRATION: 39.03 G/DL
  MEAN CORPUSCULAR VOLUME: 63.43 fL
  MONOCYTE: 1%
  NEUTROPHIL: 6.33%
  NUCLEATED RED BLOOD CELLS: 0 /100WBC
  PLATELET COUNT: 1132.33 x10E3/uL
  ALANINE AMINOTRANSFERASE: 62 u/L
  ALBUMIN: 4.07 G/DL
  ALKALINE PHOSPHATASE: 560.67 u/L
  ASPARTATE AMINOTRANSFERASE: 82.67 u/L
  BLOOD UREA NITROGEN: 12.33 mg/dL
  CARBON DIOXIDE: 26 mmol/L
  CHLORIDE: 112 MEQ/L
  CHOLESTEROL: 33.67 mg/dL
  CREATINE PHOSPHOKINASE: 218.33 u/L
  CREATININE: 0.14 mg/dL
  GLUCOSE: 166.67 mg/dL
  LACTATE DEHYDROGENASE: 156.33 u/L
  LIPASE: 9.33 u/L
  PHOSPHORUS: 9.23 mg/dL
  POTASSIUM: 5.66 MEQ/L
  SODIUM: 156.57 MEQ/L
  TOTAL BILIRUBIN: 0.17 mg/dL
  TOTAL PROTEIN: 5.77 G/DL
  URIC ACID: 0.9 mg/dL
[3]
  ABSOLUTE BASOPHIL: 0 CELLS/uL
  ABSOLUTE EOSINOPHIL: 60.67 CELLS/uL
  ABSOLUTE LYMPHOCYTE: 7091.67 CELLS/uL
  ABSOLUTE MONOCYTE: 0 CELLS/uL
  ABSOLUTE SEGMENTED NEUTROPHIL: 581 CELLS/uL
  BASOPHIL: 0%
  EOSINOPHIL: 0.67%
  ERYTHROCYTE COUNT: 5.48 x10E6/uL
  HEMATOCRIT: 34.67%
  HEMOGLOBIN: 13.4 G/DL
  LEUKOCYTE COUNT: 7.73 x10E3/uL
  LYMPHOCYTE: 91.67%
  MEAN CORPUSCULAR HEMOGLOBIN: 24.53 pg
  MEAN CORPUSCULAR HEMOGLOBIN CONCENTRATION: 38.7 G/DL
  MEAN CORPUSCULAR VOLUME: 63.4 fL
  MONOCYTE: 0%
  NEUTROPHIL: 7.67%
  NUCLEATED RED BLOOD CELLS: 0 /100WBC
  PLATELET COUNT: 1069.33 x10E3/uL
  ALANINE AMINOTRANSFERASE: 63.33 u/L
  ALBUMIN: 3.97 G/DL
  ALKALINE PHOSPHATASE: 478 u/L
  ASPARTATE AMINOTRANSFERASE: 92 u/L
  BLOOD UREA NITROGEN: 11.33 mg/dL
  CARBON DIOXIDE: 29.67 mmol/L
  CHLORIDE: 98.33 MEQ/L
  CHOLESTEROL: 40.67 mg/dL
  CREATINE PHOSPHOKINASE: 375.33 u/L
  CREATININE: 0.14 mg/dL
  GLUCOSE: 160 mg/dL
  LACTATE DEHYDROGENASE: 97.33 u/L
  LIPASE: 9 u/L
  PHOSPHORUS: 11.03 mg/dL
  POTASSIUM: 5.44 MEQ/L
  SODIUM: 144.03 MEQ/L
  TOTAL BILIRUBIN: 0.13 mg/dL
  TOTAL PROTEIN: 6.13 G/DL
  URIC ACID: 0.43 mg/dL
